# Reference: ChEMBL document CHEMBL4393729, “Sleep modulating agents” (Bioorg Med Chem Lett, 2019)
# Tests used:
# [1] = Half life in human at 25 to 400 mg
# [2] = Half life in human at 300 mg bid; assay type: ADME; settings: in vivo
# [3] = Half life in human at 8 mg treated 30 mins before bedtime; assay type: ADME; settings: in vivo
# [4] = Oral bioavailability in human; assay type: ADME, organism-based; settings: in vivo
# [5] = Half life in human at 5 to 20 mg; assay type: ADME
# [6] = Half life in human at 75 to 300 mg; assay type: ADME
# [7] = Half life in human at 200 mg; assay type: ADME
# [8] = Half life in human up to 3600 mg; assay type: ADME
# [9] = Half life in human at 5 to 10 mg; assay type: ADME
# [10] = Half life in human at 1 to 3 mg; assay type: ADME
# [11] = Half life in human; assay type: ADME
# [12] = Half life in human at 1 to 6 mg; assay type: ADME
# [13] = Half life in human at 20 to 50 mg; assay type: ADME
# [14] = Half life in human at 20 mg; assay type: ADME
# [15] = Half life in human at 2250 mg administered as two doses; assay type: ADME; settings: in vivo
# [16] = Half life in human at 75 mg; assay type: ADME
# [17] = Half life in human at 5 mg administered three times in a day; assay type: ADME; settings: in vivo
# [18] = Half life in human at 18 to 36 mg; assay type: ADME
# [19] = Half life in human at 150 mg; assay type: ADME
# [20] = Half life in human at 1 mg; assay type: ADME
# [21] = Half life in human at 1 to 2 mg; assay type: ADME
structure (smiles),measurement,setting,value
OCCOCCN1CCN(C2=Nc3ccccc3Sc3ccccc32)CC1 [QUETIAPINE],half-life,[1],6 h
CC[C@H]1OC(=O)[C@H](C)[C@@H](O[C@H]2C[C@@](C)(OC)[C@@H](O)[C@H](C)O2)[C@H](C)[C@@H](O[C@@H]2O[C@H](C)C[C@H](N(C)C)[C@H]2O)[C@](C)(OC)C[C@@H](C)C(=O)[C@H](C)[C@@H](O)[C@]1(C)O [CLARITHROMYCIN],half-life,[2],5 to 7 h
CCC(=O)NCC[C@@H]1CCc2ccc3c(c21)CCO3 [RAMELTEON],half-life,[3],1 to 2.6 h
same,bioavailability,[4],1.8%
Cc1ccc(-n2nccn2)c(C(=O)N2CCN(c3nc4cc(Cl)ccc4o3)CC[C@H]2C)c1 [SUVOREXANT],half-life,[5],9 to 13 h
NC(=O)OC[C@H](N)Cc1ccccc1 [SOLRIAMFETOL],half-life,[6],6 to 8 h
NC(=O)C[S@+]([O-])C(c1ccccc1)c1ccccc1 [(S)-MODAFINIL],half-life,[7],4 h
NCC1(CC(=O)O)CCCCC1 [GABAPENTIN],half-life,[8],5 to 7 h
Cc1ccc(-c2nc3ccc(C)cn3c2CC(=O)N(C)C)cc1 [ZOLPIDEM],half-life,[9],1.4 to 4.5 h
OC1(c2ccc(Cl)cc2)c2ccccc2C2=NCCN21 (stereo unspecified) [MAZINDOL],half-life,[10],10 to 13 h
NCCC(Oc1ccc(C(F)(F)F)cc1)c1ccccc1 (stereo unspecified) [NORFLUOXETINE],half-life,[11],360 to 408 h
CN1CCN(C(=O)O[C@H]2c3nccnc3C(=O)N2c2ccc(Cl)cn2)CC1 [ESZOPICLONE],half-life,[10],6 h
CN(C)CC/C=C1\c2ccccc2COc2ccccc21 [E-DOXEPIN],half-life,[12],8 to 24 h
COc1ccc2[nH]cc(CCNC(=O)c3cc(=O)cco3)c2c1 [PIROMELATINE],half-life,[13],1 to 3 h
CNCCC(Oc1ccc(C(F)(F)F)cc1)c1ccccc1 (stereo unspecified) [FLUOXETINE],half-life,[14],24 to 96 h
O=C([O-])CCCO.[Na+] [SODIUM OXYBATE],half-life,[15],0.6 h
CCC(=O)NC[C@@H]1C[C@H]1c1cccc2c1CCO2 [TASIMELTEON],half-life,[14],0.9 to 1.7 h
CN(C)CC(c1ccc(O)cc1)C1(O)CCCCC1 (stereo unspecified) [DESVENLAFAXINE],half-life,[16],11 h
NC[C@H](CC(=O)O)c1ccc(Cl)cc1 [ARBACLOFEN],half-life,[17],2 to 4 h
Clc1ccc(CCCOCCCN2CCCCC2)cc1 [PITOLISANT],half-life,[18],10 h
COc1ccc(C(CN(C)C)C2(O)CCCCC2)cc1 (stereo unspecified) [VENLAFAXINE],half-life,[16],5 h
NC(=O)C[S@@+]([O-])C(c1ccccc1)c1ccccc1 [ARMODAFINIL],half-life,[19],15 h
same,half-life,[7],15 h
CCOC(=O)c1ncn2c1CN(C)C(=O)c1cc(F)ccc1-2 [FLUMAZENIL],half-life,[20],0.6 to 1.2 h
Clc1ccc2c(c1)C(c1ccccc1)=NCc1nncn1-2 [ESTAZOLAM],half-life,[21],10 to 24 h
COC(=O)C(c1ccccc1)C1CCCCN1 (stereo unspecified) [METHYLPHENIDATE],half-life,[14],2 h
